Test results: PMC12546632, “The role of cytochrome bc1 inhibitors in future tuberculosis treatment regimens” (Nature Communications, 2025)
Values after ≈ are worked out from the molar mass of the structure shown.

Experiments:
[1] = test system: M. tuberculosis ΔcydAB (Parent); assay: microbe, parasite or virus in culture; format: cell-based; details: Mycobacterium tuberculosis
[2] = test system: M. tuberculosis reference strain H37Rv; assay: Survival under monotherapy in intravenous model (related to Study C); format: in vivo, Mycobacterium tuberculosis; details: for Survival of mice under monotherapy: in vivo, iv; for Day of death, individual mice: intravenous model, monotherapy, read with the 1/0 flag of the same line (96 with flag 0)
M. tuberculosis H37Rv = assay: MIC90 determination, H37Rv; format: cell-based, Mycobacterium tuberculosis; details: Mycobacterium tuberculosis; strain H37Rv (Institut Pasteur, lineage 4); read-out: MIC90
[3] = test system: M. tuberculosis clinical isolates; assay: microbe, parasite or virus in culture; format: cell-based, Mycobacterium tuberculosis; details: Mycobacterium tuberculosis

| SMILES | MIC50 [1] | Survival of mice under monotherapy [2] | Day of death, individual mice [2] | MIC90 (M. tuberculosis H37Rv) | MIC90 ([3]; strain Mtb-0617 (Karonga, lineage 3)) | MIC90 ([3]; strain Mtb-2703 (Karonga, lineage 3)) | MIC90 ([3]; strain Mtb-4779 (Karonga, lineage 2)) | MIC90 ([3]; strain Mtb-4980 (Karonga, lineage 4)) | MIC90 ([3]; strain Mtb-6787 (Karonga, lineage 4)) | MIC90 ([3]; strain Mtb-7489 (Karonga, lineage 1)) | MIC90 ([3]; strain Mtb-7496 (Karonga, lineage 3)) | MIC90 ([3]; strain Mtb-9271 (Karonga, lineage 4)) | MIC90 ([3]; strain Mtb-61164 (Karonga, lineage 2)) | MIC90 ([3]; strain N0054 (Gagneux, lineage 3)) | MIC90 ([3]; strain N0072 (Gagneux, lineage 1)) | MIC90 ([3]; strain N1283 (Gagneux, lineage 4)) |
| --- | --- | --- | --- | --- | --- | --- | --- | --- | --- | --- | --- | --- | --- | --- | --- | --- |
| NNC(=O)c1ccncc1 [Isoniazid, isoniazid] | 0.51 µM (≈ 0.0699 µg/mL) |  |  |  |  |  |  |  |  |  |  |  |  |  |  |  |
| COc1c(N2C[C@@H]3CCCN[C@@H]3C2)c(F)cc2c(=O)c(C(=O)O)cn(C3CC3)c12 [Moxifloxacin, moxifloxacin, reference compound] |  | 100% | 96 |  |  |  |  |  |  |  |  |  |  |  |  |  |
| COc1nc2ccc(Br)cc2cc1[C@@H](c1ccccc1)[C@@](O)(CCN(C)C)c1cccc2ccccc12 [Bedaquiline, bedaquiline, reference compound] | 0.05 µM (≈ 0.0278 µg/mL) | 100% | 96 | 0.197 µM (≈ 0.109 µg/mL) | 0.431 µM (≈ 0.239 µg/mL) | 0.064 µM (≈ 0.0356 µg/mL) | 0.045 µM (≈ 0.025 µg/mL) | 0.063 µM (≈ 0.035 µg/mL) | 0.053 µM (≈ 0.0294 µg/mL) | 0.43 µM (≈ 0.239 µg/mL) | 0.106 µM (≈ 0.0589 µg/mL) | 0.05 µM (≈ 0.0278 µg/mL) | 0.188 µM (≈ 0.104 µg/mL) | 0.354 µM (≈ 0.197 µg/mL) | 0.17 µM (≈ 0.0944 µg/mL) | 0.104 µM (≈ 0.0578 µg/mL) |
